Data reported in ChEMBL document CHEMBL1151040, “Synthetic inhibitors of interleukin-6 I: 2,3,7,8-tetrahydro-4-aryl-1H-cyclopent [e] imidazo [1,2-a]- pyridin-5(6H)-one and related compounds” (Bioorg Med Chem Lett, 1995).
pIC50: −log10 of the molar value.

Assays:
WEHI265.1 [1] = assay: In vitro inhibitory activity against lipopolysaccharide (LPS)-induced interleukin 6 production in murine myelomonocytic leukemia (WEHI-265.1) cells at a concentration of 10 uM; assay type: functional; settings: Mus musculus
Mus musculus [2] = assay: Effective dose of compound against serum interleukin 6 (IL-6) in C3H mice when administered intraperitoneally; assay type: functional; settings: ip
WEHI265.1 [3] = assay: In vitro inhibitory activity against lipopolysaccharide (LPS)-induced interleukin 6 (IL-6) production in murine myelomonocytic leukemia (WEHI-265.1) cells; assay type: functional, cell-based; settings: Mus musculus
Mus musculus [4] = assay: Inhibitory activity against LPS-induced interleukin 6 (IL-6) in the serum of C3H mice, at a dose of 25 mpk by oral administration; assay type: functional
Mus musculus [5] = assay: Inhibitory activity against LPS-induced interleukin 6 (IL-6) in the serum of C3H mice, at a dose of 25 mpk by intraperitoneal administration; assay type: functional; settings: ip
Mus musculus [6] = assay: Effective dose of compound against serum interleukin 6 (IL-6) in C3H mice when administered orally; assay type: functional; settings: po
WEHI265.1 [7] = assay: In vitro inhibitory activity against lipopolysaccharide (LPS) -induced IL-6 production in murine myelomonocytic uM; assay type: functional, Mus musculus

pIC50 (WEHI265.1 [3]) | Structure (SMILES) | inhibition at 10 µM (WEHI265.1 [1]) [%] | other results
 | OC1=C(c2cccnc2)C2=NCCN2C2=C1CCC2 | 0 | 
 | OC1=CC2=NCCN2C2=C1CCC2 | 38 | 
 | CCOC(=O)C1=C(O)C2=C(CCC2)N2CCN=C12 | 58 | 
 | OC1=C(Sc2ccccc2)C2=NCCN2C2=C1CCC2 | 63 | 
 | CN1CCn2c3c(c(=O)c(-c4ccccc4)c21)CCC3 | 27 | 
 | OC1=C(c2ccccc2C(F)(F)F)C2=NCCN2C2=C1CCC2 | 90 | 
 | COc1ccccc1-c1c2n(c3c(c1=O)CCC3)CCN2 | 82 | ED50 (Mus musculus [2]): 0.3 mg/kg
5.30 | CC(=O)Nc1ccccc1-c1c2n(c3c(c1=O)CCC3)CCN2 | 74 | 
5.70 | Nc1ccccc1-c1c2n(c3c(c1=O)CCC3)CCN2 | 82 | inhibition in vivo at 25 mg/kg (Mus musculus [4]): 72%; ED50 (Mus musculus [2]): 4 mg/kg
5.40 | O=c1c2c(n3c(c1-c1ccccc1Cl)NCC3)CCC2 | 90 | ED50 (Mus musculus [2]): 0.5 mg/kg
 | O=c1c2c(n3c(c1-c1ccccc1)N(Cc1ccccc1)CC3)CCC2 | 43 | 
 | O=c1c2c(n3c(c1-c1ccccc1)OCC3)CCC2 | 20 | 
5.22 | O=[N+]([O-])c1ccccc1C1=C(O)C2=C(CCC2)N2CCN=C12 | 73 | inhibition in vivo at 25 mg/kg (Mus musculus [4]): 78%; ED50 (Mus musculus [2]): 8 mg/kg
 | O=c1c2c(n3c(c1-c1ccccc1)SCC3)CCC2 | 52 | 
 | OC1=C(c2ccccn2)C2=NCCN2C2=C1CCC2 | 55 | 
 | OC1=C(c2ccccc2O)C2=NCCN2C2=C1CCC2 | 55 | 
 | CSC1=C(O)C2=C(CCC2)N2CCN=C12 | 77 | 
6.22 | CCOC(=O)c1cccc(C2=C(O)C3=C(CCC3)N3CCN=C23)c1 | 83 | 
 | O=C(O)c1cccc(C2=C(O)C3=C(CCC3)N3CCN=C23)c1 | 0 | 
6.70 | OC1=C(c2ccccc2)C2=NCCN2C2=C1CCC2 |  | inhibition in vivo at 25 mg/kg (Mus musculus [5]): 77%; inhibition in vivo at 25 mg/kg (Mus musculus [4]): 39%; ED50 (Mus musculus [2]): 0.35 mg/kg; ED50 (Mus musculus [6]): 32 mg/kg; Inhibition (WEHI265.1 [7]): 74%
